Measured values reported in patent publication EP4703354A1, “COMPOUND AS CCR6 ANTAGONIST, AND PHARMACEUTICAL COMPOSITION AND USE THEREOF” (Wuhan Createrna Science and Technology Co.,Ltd., priority 2023, dated 2024).
pIC50: −log10 of the molar value.

How the values were obtained:
human CCR6 = molecular target: T1, human CCR6 (Homo sapiens, UniProt P51684); assay: human CCR6 calcium flux activity (FLIPR, HEK293 cells stably expressing human CCR6, CCL20 stimulation); format: cell-based; settings: for pIC50: HEK293 cells stably expressing human CCR6, EC80 human MIP-3 alpha/CCL20, read-out: CCR6 inhibitory activity, IC50; for CCR6 selectivity: ratio of CXCR2 IC50 to CCR6 IC50
T1 construct: expressed in transfected cells; host or cells: HEK293
T1 sequence (P51684 1-374): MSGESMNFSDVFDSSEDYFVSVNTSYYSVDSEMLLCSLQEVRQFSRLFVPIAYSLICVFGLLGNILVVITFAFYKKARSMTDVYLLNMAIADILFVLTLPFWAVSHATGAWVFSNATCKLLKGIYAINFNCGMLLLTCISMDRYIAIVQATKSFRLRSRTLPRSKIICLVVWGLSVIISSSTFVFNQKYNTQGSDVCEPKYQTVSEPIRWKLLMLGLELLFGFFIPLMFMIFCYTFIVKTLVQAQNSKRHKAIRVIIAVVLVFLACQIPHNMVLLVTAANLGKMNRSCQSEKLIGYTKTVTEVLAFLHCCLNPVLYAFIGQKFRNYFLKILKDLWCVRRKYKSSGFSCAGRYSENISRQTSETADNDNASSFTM
Outline: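 Compounds preincubated with Fluo-4 Direct-loaded cells 50 min at 37 °C, then 10 min at room temperature, before CCL20 challenge at EC80. Fluorescence (ex 494/em 516 nm) recorded 90 s; max−min signal gives inhibition, four-parameter fit yields IC50.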

human CXCR2 = molecular target: T2, human CXCR2 (Homo sapiens, UniProt P25025); assay: human CXCR2 calcium flux activity (FLIPR, HEK293 cells stably expressing human CXCR2, IL-8 stimulation); format: cell-based; settings: HEK293 cells stably expressing human CXCR2, EC80 human IL-8; read-out: CXCR2 inhibitory activity, IC50
T2 construct: expressed in transfected cells; host or cells: HEK293
T2 sequence (P25025 1-360): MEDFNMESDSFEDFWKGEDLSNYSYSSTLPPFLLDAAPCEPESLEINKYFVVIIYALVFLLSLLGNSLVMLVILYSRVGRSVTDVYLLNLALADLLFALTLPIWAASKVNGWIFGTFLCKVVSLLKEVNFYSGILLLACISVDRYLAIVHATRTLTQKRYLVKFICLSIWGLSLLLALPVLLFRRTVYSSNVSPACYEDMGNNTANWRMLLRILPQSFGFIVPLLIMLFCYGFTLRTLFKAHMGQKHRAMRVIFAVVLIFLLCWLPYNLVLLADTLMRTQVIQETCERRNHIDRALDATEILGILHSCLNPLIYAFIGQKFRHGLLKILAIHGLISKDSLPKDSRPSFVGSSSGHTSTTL
Experimental: The activity of the compounds was evaluated using HEK293 cells stably expressing human CXCR2 via the FLIPR platform. A 384-well black cell culture plate (Greiner, 781946) was used, with a seeding density of 20,000 cells/well, and incubated overnight at 37°C in a 5% CO2 incubator. The culture medium in the cell plate wells was removed, and 20 µL of Fluo-4 Direct™ Calcium Assay Buffer (Invitrogen, F10471, Component C), 20 µL of 2× Fluo-4 Direct™ Calcium Assay Reagent (Invitrogen, F10471, Component A) working solution, and 10 µL of 6× test compound working solution were sequentially added to each well. The cell plate was incubated in a 37 °C, 5% CO2 incubator for 50 min, followed by a 10 min incubation at room temperature. Additionally, a 6×EC80 human IL-8 (Sigma, SRP3311) working solution was prepared. After the incubation was completed, 10 µL/well of the 6×EC80 human IL-8 working solution was transferred to the corresponding cell wells using a FLIPR instrument, and the fluorescence signal changes at an excitation wavelength of 494 nm and an emission wavelength of 516 nm were recorded over 130 s. The difference between the maximum fluorescence signal (RFUMax) and the minimum fluorescence signal (RFUMin) was used as the output signal. The compound inhibition rate and the log value of the compound concentration were calculated, and a four-parameter fitting analysis was performed using GraphPad Prism 8 software to obtain the IC50 value of the test compound. Table 1. Inhibitory activity data of compounds against CCR6 and CXCR2

[1] = in vivo pharmacokinetic study in SD rats; settings: male, rat, plasma; for bioavailability: 1 mg/kg PO vs 1 mg/kg IV, read-out: Oral bioavailability F (%); for AUC(0-t) / Cmax / half-life: 1 mg/kg
Outline: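 Male SD rats (180-200 g), 3 per route: single fasted oral gavage in 1% Tween 80 or tail-vein IV bolus in 50% PEG400. Orbital blood into EDTA-K2 sampled to 8 h; plasma analysed and PK parameters derived by non-compartmental analysis.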

[2] = in vitro liver microsome metabolic stability, human; format: in vitro ADME; settings: Human liver microsomes, 37°C
Outline: (§1)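 Test compound at 1 µM final (100 µM working solution diluted 1:100) incubated at 37°C with liver microsomes in pH 7.4 phosphate buffer with NADP/G6P/G6PDH/MgCl2 regenerating system; sampled 0–30 min, LC-MS/MS vs internal standard. T1/2 = 0.693/k from remaining-fraction decay.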

[3] = in vitro liver microsome metabolic stability, rat; format: in vitro ADME; settings: Rat liver microsomes, 37°C
Outline: as §1

[4] = in vitro liver microsome metabolic stability, mouse; format: in vitro ADME; settings: Mouse liver microsomes, 37°C
Experimental: Preparation of working solutions for test compounds and standards: An appropriate amount of the compound was accurately weighed and dissolved in a corresponding volume of suitable solvent to prepare 1 mM stock solutions of the test compounds and standards. The stock solutions were then diluted with appropriate solvent to obtain 100 µM working solutions of the test compounds, ensuring that the DMSO content in the working solutions remained below 10%.
The internal standard compound testosterone (or tolbutamide) and its corresponding solvent, internal standard concentration (200 ng/mL), were selected based on the properties of the test compound.
• Solution A: 0.1 mol/L K2HPO4 (2.28 g K2HPO4·3H2O was dissolved in 100 mL of double-distilled water); • Solution B: 0.1 mol/L KH2PO4 (1.36 g KH2PO4 was dissolved in 100 mL of double-distilled water); • 80.2 mL of Solution A and 19.8 mL of Solution B were mixed thoroughly, and the pH was adjusted to 7.4.
37.5 mg of glycine was weighed, dissolved in 100 mL of ultrapure water, and adjusted to pH 8.0 with NaOH.
1.25 mg of glucose-6-phosphate dehydrogenase (400 U/mg) was weighed (the specific amount weighed was calculated based on the activity of the purchased glucose-6-phosphate dehydrogenase), dissolved in 1 mL of glycine buffer to a concentration of 500 U/mL, aliquoted into 20 µL per tube, and stored at -20°C for future use.
7.83 mg of NADP, 0.06 mL of D-glucose-6-phosphate (260 mg/mL), and 10.17 mg of MgCl2·6H2O were precisely weighed.
The mixture was dissolved in 1 mL of pure water. The cofactor ratio composition: NADP 10 mM, D-glucose-6-phosphate 60 mM, MgCl2·6H2O 50 mM.
The reaction system (taking a 500 µL system as an example) was composed of the following solution ratios: 416.5 µL phosphate buffer, 5 µL compound working solution, 25 µL liver microsomes, 3.5 µL glucose-6-phosphate dehydrogenase, and 50 µL cofactor solution. The total incubation volume could be adjusted according to experimental requirements.
416.5 µL of phosphate buffer was taken, 25 µL of liver microsomes, 3.5 µL of glucose-6-phosphate dehydrogenase, and 50 µL of cofactor solution were added, vortexed twice to mix, and preincubated in a 37°C water bath for 5 minutes. Then, 5 µL of the test compound working solution was added, vortexed twice to mix, each time for 2-3 seconds, and placed in a 37°C water bath to initiate the reaction, with two parallel samples set. At 0.5 min, 1 min, 2 min, 5 min, 15 min, and 30 min after the reaction, 50 µL of the mixture was taken and added to centrifuge tubes containing 200 µL of 0°C pre-cooled internal standard working solution to terminate the reaction, vortexed for 1 minute to mix, and centrifuged at 13,000 rpm for 10 minutes in a 4°C pre-cooled high-speed centrifuge. The supernatant was collected for analysis. After the compound was added and vortex-mixed, 50 µL of the mixture was rapidly transferred to a centrifuge tube containing 200 µL of a pre-cooled (0°C) internal standard working solution to terminate the reaction, vortex-mixed for 1 minute, and used as the relative zero-point sample (relative to the standard group). The sample was then placed into a 37°C water bath to initiate the reaction, and timing was started.
The sample analysis of the test compound was performed using the liquid chromatography-tandem mass spectrometry (LCMS/MS) method. The semi-quantitative determination was performed using the ratio of the analyte peak area to the internal standard peak area. The retention times of the analyte and internal standard, chromatogram acquisition, and chromatogram integration were processed using Analyst software.
The in vitro elimination rate constant k of the test compound and the control compound was determined by converting the ratio of the peak area of the test compound to the internal standard into the remaining rate, and T1/2 was then calculated according to the following formula. T1/2 = (Ln2)/(k) = (0.693)/(k) [formula] Table 3. […]

[5] = in vitro liver microsome metabolic stability, beagle dog; format: in vitro ADME; settings: Beagle dog liver microsomes, 37°C
Outline: as §1

SMILES: CN(C)C(=O)c1nccc(Nc2c(N[C@@H](c3nc(C(F)F)ccc3F)C3(C)CCCC3)c(=O)c2=O)c1O [compound 109, (R)-4-((2-(((6-(difluoromethyl)-3-fluoropyridin-2-yl)(1-methylcyclopentyl)methyl)amino)-3,4-dioxocyclobut-1-en-1-yl)amino)-3-hydroxy-N,N-dimethylpicolinamide]
- pIC50 (human CCR6): 8.62
- CCR6 selectivity (human CCR6): 55.5
- pIC50 (human CXCR2): 6.88
- bioavailability [1]: 61.8%
- AUC(0-t) ([1]; IV): 0.786 µg·h/mL
- Cmax ([1]; IV): 3.14 µg/mL
- half-life ([1]; IV): 0.5 h
- AUC(0-t) ([1]; PO): 0.485 µg·h/mL
- Cmax ([1]; PO): 0.264 µg/mL
- half-life ([1]; PO): 2.07 h

SMILES: CN(C)C(=O)c1nccc(Nc2c(N[C@@H](c3nc(CF)ccc3F)C3(C)CCCC3)c(=O)c2=O)c1O [compound 094, (R)-4-((2-(((3-fluoro-6-(fluoromethyl)pyridin-2-yl)(1-methylcyclopentyl)methyl)amino)-3,4-dioxocyclobut-1-en-1-yl)amino)-3-hydroxy-N,N-dimethylpicolinamide]
- pIC50 (human CCR6): 8.96
- CCR6 selectivity (human CCR6): 174.73
- pIC50 (human CXCR2): 6.72
- bioavailability [1]: 22.8%
- AUC(0-t) ([1]; IV): 1.21 µg·h/mL
- Cmax ([1]; IV): 4.46 µg/mL
- half-life ([1]; IV): 0.37 h
- AUC(0-t) ([1]; PO): 0.276 µg·h/mL
- Cmax ([1]; PO): 0.208 µg/mL
- half-life ([1]; PO): 2.18 h

SMILES: CN(C)C(=O)c1nccc(Nc2c(N[C@@H](c3nc(F)ccc3F)C3(C)CCCC3)c(=O)c2=O)c1O [compound 023, (R)-4-((2-(((3,6-difluoropyridin-2-yl)(1-methylcyclopentyl)methyl)amino)-3,4-dioxocyclobut-1-en-1-yl)amino)-3-hydroxy-N,N-dimethylpicolinamide]
- pIC50 (human CCR6): 9.05
- CCR6 selectivity (human CCR6): 227.0
- pIC50 (human CXCR2): 6.69
- bioavailability [1]: 30.5%
- AUC(0-t) ([1]; IV): 2.02 µg·h/mL
- Cmax ([1]; IV): 4.13 µg/mL
- AUC(0-t) ([1]; PO): 0.616 µg·h/mL
- Cmax ([1]; PO): 0.335 µg/mL
- half-life ([1]; PO): 2.08 h

SMILES: CN(C)C(=O)c1nccc(Nc2c(N[C@@H](c3nc(Cl)ccc3F)C3(C)CCCC3)c(=O)c2=O)c1O [compound 053, (R)-4-((2-(((6-chloro-3-fluoropyridin-2-yl)(1-methylcyclopentyl)methyl)amino)-3,4-dioxocyclobut-1-en-1-yl)amino)-3-hydroxy-N,N-dimethylpicolinamide]
- pIC50 (human CCR6): 8.82
- CCR6 selectivity (human CCR6): 1163.3
- pIC50 (human CXCR2): 5.76
- bioavailability [1]: 33.1%
- AUC(0-t) ([1]; IV): 1.8 µg·h/mL
- Cmax ([1]; IV): 3.89 µg/mL
- AUC(0-t) ([1]; PO): 0.596 µg·h/mL
- Cmax ([1]; PO): 0.38 µg/mL
- half-life ([1]; PO): 2.33 h

SMILES: Cc1cccnc1[C@@H](Nc1c(Nc2ccnc(C(=O)N(C)C)c2O)c(=O)c1=O)[C@]1(C)CCC(F)(F)C1 (single isomer, unassigned) [125D]
- Liver microsome T1-2 (min) Human [2]: 572.07 min
- Liver microsome T1-2 (min) Rat [3]: 83.07 min
- Liver microsome T1-2 (min) Mouse [4]: 19686.4 min
- Liver microsome T1-2 (min) Beagle dog [5]: 220.11 min

SMILES: CNC(=O)c1c(Cl)ccc(Nc2c(N[C@@H](c3ncccc3C)C3(C)CCCC3)c(=O)c2=O)c1O [compound 064, (R)-6-chloro-2-hydroxy-N-methyl-3-((2-(((1-methylcyclopentyl)(3-methylpyridin-2-yl)methyl)amino)-3,4-dioxocyclobut-1-en-1-yl)amino)benzamide]
- pIC50 (human CCR6): 8.19
- CCR6 selectivity (human CCR6): 1730.2
- pIC50 (human CXCR2): 4.95

SMILES: CN(C)C(=O)c1nccc(Nc2c(N[C@@H](c3nc(F)ccc3Cl)C3(C)CCCC3)c(=O)c2=O)c1O [compound 025, (R)-4-((2-(((3-chloro-6-fluoropyridin-2-yl)(1-methylcyclopentyl)methyl)amino)-3,4-dioxocyclobut-1-en-1-yl)amino)-3-hydroxy-N,N-dimethylpicolinamide]
- pIC50 (human CCR6): 8.55
- CCR6 selectivity (human CCR6): 282.4
- pIC50 (human CXCR2): 6.10

SMILES: Cc1cccnc1[C@H](Nc1c(Nc2ccnc(C(=O)N(C)C)c2O)c(=O)c1=O)C1(C)CCCC1 [compound 018, (R)-3-hydroxy-N,N-dimethyl-4-((2-(((1-methylcyclopentyl)(3-methylpyridin-2-yl)methyl)amino)-3,4-dioxocyclobut-1-en-1-yl)amino)picolinamide]
- pIC50 (human CCR6): 7.96
- CCR6 selectivity (human CCR6): 8363.5
- pIC50 (human CXCR2): 4.04
- bioavailability [1]: 49.1%
- AUC(0-t) ([1]; IV): 1.16 µg·h/mL
- Cmax ([1]; IV): 2.24 µg/mL
- AUC(0-t) ([1]; PO): 1.71 µg·h/mL
- Cmax ([1]; PO): 0.92 µg/mL
- half-life ([1]; PO): 4.3 h
